Source: the supplement of paper PMC10307832

Assays:
Experiment in all cases: relative viability (nuclei count vs DMSO), 5 days (fraction); higher = more cells survive
R406 + Navitoclax = compound: COc1cc(Nc2ncc(F)c(Nc3ccc4c(n3)NC(=O)C(C)(C)O4)n2)cc(OC)c1OC [R406] + CC1(C)CCC(c2ccc(Cl)cc2)=C(CN2CCN(c3ccc(C(=O)NS(=O)(=O)c4ccc(N[C@H](CCN5CCOCC5)CSc5ccccc5)c(S(=O)(=O)C(F)(F)F)c4)cc3)CC2)C1 [Navitoclax] (partner 0.5 µM)
Method in brief: (§1)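 Relative viability divides the nuclei count in treated wells by that in vehicle wells. Lung cancer cell lines were seeded in 1536-well plates, dosed by pin tool the next day, and fixed and stained after 5 days in one step with final 0.05% Triton X-100, 1% formaldehyde and 1 ug/ml Hoechst. Dosing was a single drug or a fixed anchor-drug dose plus five library-drug doses (not always all listed) in √10 steps, and values are medians of duplicate plates imaged at 4×.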

Daporinad + Phenformin = compound: O=C(/C=C/c1cccnc1)NCCCCC1CCN(C(=O)c2ccccc2)CC1 [Daporinad] + N=C(N)NC(=N)NCCc1ccccc1 [Phenformin] (partner 250 µM)
Method in brief: as §1

R406 + Bortezomib = compound: COc1cc(Nc2ncc(F)c(Nc3ccc4c(n3)NC(=O)C(C)(C)O4)n2)cc(OC)c1OC [R406] + CC(C)C[C@H](NC(=O)[C@H](Cc1ccccc1)NC(=O)c1cnccn1)B(O)O [Bortezomib] (partner 0.002 µM)
Method in brief: as §1

R406 + Pemetrexed = compound: COc1cc(Nc2ncc(F)c(Nc3ccc4c(n3)NC(=O)C(C)(C)O4)n2)cc(OC)c1OC [R406] + Nc1nc2[nH]cc(CCc3ccc(C(=O)N[C@@H](CCC(=O)O)C(=O)O)cc3)c2c(=O)[nH]1 [Pemetrexed] (partner 0.2 µM)
Method in brief: as §1

| Cell Line | relative viability (R406 + Navitoclax; first compound 0.08 µM) | relative viability (R406 + Navitoclax; first compound 0.253 µM) | relative viability (R406 + Navitoclax; first compound 0.8 µM) | relative viability (R406 + Navitoclax; first compound 2.53 µM) | relative viability (R406 + Navitoclax; first compound 8 µM) | relative viability (Daporinad + Phenformin; first compound 0.0005 µM) | relative viability (Daporinad + Phenformin; first compound 0.001581 µM) | relative viability (Daporinad + Phenformin; first compound 0.005 µM) | relative viability (Daporinad + Phenformin; first compound 0.01581 µM) | relative viability (R406 + Bortezomib; first compound 0.08 µM) | relative viability (R406 + Bortezomib; first compound 0.253 µM) | relative viability (R406 + Bortezomib; first compound 0.8 µM) | relative viability (R406 + Bortezomib; first compound 2.53 µM) | relative viability (R406 + Bortezomib; first compound 8 µM) | relative viability (R406 + Pemetrexed; first compound 0.08 µM) | relative viability (R406 + Pemetrexed; first compound 0.253 µM) | relative viability (R406 + Pemetrexed; first compound 0.8 µM) | relative viability (R406 + Pemetrexed; first compound 2.53 µM) | relative viability (R406 + Pemetrexed; first compound 8 µM) |
| --- | --- | --- | --- | --- | --- | --- | --- | --- | --- | --- | --- | --- | --- | --- | --- | --- | --- | --- | --- |
| EPLC-272H | 1.03 | 1.18 | 1.21 | 0.63 | 0.589 | 0.265 | 0.299 | 0.373 | 0.368 | 0.813 | 0.983 | 0.984 | 0.51 | 0.495 | 0.359 | 0.359 | 0.316 | 0.231 | 0.151 |
| H3255 | 0.488 | 0.731 | 0.541 | 0.312 | 0.14 | 0.355 | 0.341 | 0.379 | 0.424 | 0.852 | 0.912 | 0.686 | 0.865 | 0.457 | 0.547 | 0.588 | 0.606 | 0.521 | 0.49 |
| HARA | 1.05 | 1.14 | 1.12 | 1.19 | 0.453 | 0.412 | 0.397 | 0.426 | 0.114 | 1.07 | 1.21 | 1.15 | 0.991 | 0.389 | 0.261 | 0.236 | 0.246 | 0.262 | 0.174 |
| HCC-15 | 0.732 | 0.77 | 0.781 |  | 0.509 | 0.421 | 0.617 | 0.567 | 0.586 | 1.02 | 1.16 | 1.25 |  | 0.962 | 0.213 | 0.223 | 0.2 | 0.201 | 0.144 |
| HCC-44 | 0.915 | 1.04 | 1.05 | 1.04 | 0.316 | 0.255 | 0.189 | 0.233 | 0.182 | 0.927 | 1.07 | 1 | 0.312 | 0.603 | 0.585 | 0.621 | 0.603 | 0.601 | 0.726 |
| HCC-78 | 0.729 | 0.899 | 0.876 | 0.508 | 0.43 | 0.619 |  | 0.839 | 0.819 | 0.491 | 0.541 | 0.51 | 0.306 | 0.241 | 0.807 | 0.972 | 0.962 | 0.847 | 0.878 |
| HCC-366 | 0.855 | 1.18 | 1.16 |  | 0.663 | 0.565 | 0.584 | 0.633 | 0.606 | 1.08 | 1.02 | 1.3 |  | 0.428 | 0.161 | 0.17 | 0.172 | 0.164 | 0.132 |
| HCC-827 | 1.04 | 0.952 | 0.949 | 0.932 | 0.489 | 0.442 | 0.478 | 0.421 | 0.461 | 1.06 | 1.12 | 1.12 | 1.11 | 1.02 | 0.259 | 0.262 | 0.264 | 0.229 | 0.193 |
| HOP-62 | 0.937 | 0.985 | 1.11 | 1.1 | 1.06 | 0.493 | 0.746 | 0.765 | 0.526 | 0.835 | 0.656 | 0.559 | 1.02 | 0.82 | 0.315 | 0.348 | 0.297 | 0.412 | 0.344 |
